In PubChem BioAssay AID1963972 (Molecular Pharmacology Branch, DTP, NCI, 2024):
pIC50: −log10 of the molar value.

Test system: 945468-187-T-J2-PDC spheroids viability
Experiment: Anticancer human tumor 945468-187-T-J2-PDC patient-derived rectal carcinoma cell line growth inhibition [PI3K]
Settings: spheroids with HUVEC and MSC; for pIC50: curve of first compound; for viability, T/C: stronger effect = lower value; active = viability on the fitted dose curve at most 10% of control; inactive = the rest
Summary of the method: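 Tumor cells were combined with HUVEC and MSCs into spheroids, then dosed with PI3K-inhibitor combinations over half-log ranges capped near clinical Cmax or 10 microM.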
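Note: spheroids exposed to compounds for seven days before reading.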

CC1(C)CCC(Nc2ncc(C(F)(F)F)c(-c3c[nH]c4c(P(C)(C)=O)c(C#N)ccc34)n2)CN1 (centres undefined) + COc1c(OCCCN2CCOCC2)ccc2c3n(c(=NC(=O)c4cnc(N)nc4)nc12)CCN3
> 7.50: pIC50 (second compound 0.316 µM) | pIC50 (second compound 1 µM)
6.06: pIC50 (second compound 0.01 µM)
6.13: pIC50 (second compound 0.0316 µM)
6.18: pIC50 (second compound 0.00316 µM) | pIC50 (second compound 0.1 µM)
inactive: viability, T/C (second compound 0.00316 µM, first compound 0.0316 µM) 91% | viability, T/C (second compound 0.00316 µM, first compound 0.1 µM) 86.8% | viability, T/C (second compound 0.00316 µM, first compound 0.316 µM) 66.3% | viability, T/C (second compound 0.00316 µM, first compound 1 µM) 40.5% | viability, T/C (second compound 0.00316 µM, first compound 3.16 µM) 32.6% | viability, T/C (second compound 0.00316 µM, first compound 10 µM) 27.6% | viability, T/C (second compound 0.01 µM, first compound 0.0316 µM) 92.9% | viability, T/C (second compound 0.01 µM, first compound 0.1 µM) 89.8% | viability, T/C (second compound 0.01 µM, first compound 0.316 µM) 76% | viability, T/C (second compound 0.01 µM, first compound 1 µM) 46.8% | viability, T/C (second compound 0.01 µM, first compound 3.16 µM) 30.2% | viability, T/C (second compound 0.01 µM, first compound 10 µM) 28.7% | viability, T/C (second compound 0.0316 µM, first compound 0.0316 µM) 110% | viability, T/C (second compound 0.0316 µM, first compound 0.1 µM) 85% | viability, T/C (second compound 0.0316 µM, first compound 0.316 µM) 69.2% | viability, T/C (second compound 0.0316 µM, first compound 1 µM) 38.9% | viability, T/C (second compound 0.0316 µM, first compound 3.16 µM) 37.7% | viability, T/C (second compound 0.0316 µM, first compound 10 µM) 25.9% | viability, T/C (second compound 0.1 µM, first compound 0.0316 µM) 86.5% | viability, T/C (second compound 0.1 µM, first compound 0.1 µM) 88.4% | viability, T/C (second compound 0.1 µM, first compound 0.316 µM) 62.8% | viability, T/C (second compound 0.1 µM, first compound 1 µM) 43.5% | viability, T/C (second compound 0.1 µM, first compound 3.16 µM) 37.3% | viability, T/C (second compound 0.1 µM, first compound 10 µM) 31.8% | viability, T/C (second compound 0.316 µM, first compound 0.0316 µM) 42% | viability, T/C (second compound 0.316 µM, first compound 0.1 µM) 44.3% | viability, T/C (second compound 0.316 µM, first compound 0.316 µM) 40.2% | viability, T/C (second compound 0.316 µM, first compound 1 µM) 33.8% | viability, T/C (second compound 0.316 µM, first compound 3.16 µM) 31.2% | viability, T/C (second compound 0.316 µM, first compound 10 µM) 17.2% | viability, T/C (second compound 1 µM, first compound 0.0316 µM) 21.3% | viability, T/C (second compound 1 µM, first compound 0.1 µM) 19.5% | viability, T/C (second compound 1 µM, first compound 0.316 µM) 22.8% | viability, T/C (second compound 1 µM, first compound 1 µM) 19% | viability, T/C (second compound 1 µM, first compound 3.16 µM) 17.7% | viability, T/C (second compound 1 µM, first compound 10 µM) 10.2%

Cn1cnc2c(F)c(Nc3ccc(Br)cc3Cl)c(C(=O)NOCCO)cc21 + Cc1nc(NC(=O)N2CCCC2C(N)=O)sc1-c1ccnc(C(C)(C)C(F)(F)F)c1
5.59: pIC50 (second compound 3.16 µM)
< 5.52: pIC50 (second compound 0.0316 µM) | pIC50 (second compound 0.1 µM) | pIC50 (second compound 0.316 µM) | pIC50 (second compound 1 µM)
inactive: viability, T/C (second compound 0.0316 µM, first compound 0.00949 µM) 87.9% | viability, T/C (second compound 0.0316 µM, first compound 0.03 µM) 73.6% | viability, T/C (second compound 0.0316 µM, first compound 0.0949 µM) 79.8% | viability, T/C (second compound 0.0316 µM, first compound 0.3 µM) 71.8% | viability, T/C (second compound 0.0316 µM, first compound 0.949 µM) 66.7% | viability, T/C (second compound 0.0316 µM, first compound 3 µM) 62% | viability, T/C (second compound 0.1 µM, first compound 0.00949 µM) 110% | viability, T/C (second compound 0.1 µM, first compound 0.03 µM) 84.5% | viability, T/C (second compound 0.1 µM, first compound 0.0949 µM) 88.9% | viability, T/C (second compound 0.1 µM, first compound 0.3 µM) 77.4% | viability, T/C (second compound 0.1 µM, first compound 0.949 µM) 70.9% | viability, T/C (second compound 0.1 µM, first compound 3 µM) 63.1% | viability, T/C (second compound 0.316 µM, first compound 0.00949 µM) 99% | viability, T/C (second compound 0.316 µM, first compound 0.03 µM) 74.1% | viability, T/C (second compound 0.316 µM, first compound 0.0949 µM) 82.4% | viability, T/C (second compound 0.316 µM, first compound 0.3 µM) 75.1% | viability, T/C (second compound 0.316 µM, first compound 0.949 µM) 68.7% | viability, T/C (second compound 0.316 µM, first compound 3 µM) 69.4% | viability, T/C (second compound 1 µM, first compound 0.00949 µM) 71.7% | viability, T/C (second compound 1 µM, first compound 0.03 µM) 114% | viability, T/C (second compound 1 µM, first compound 0.0949 µM) 80.6% | viability, T/C (second compound 1 µM, first compound 0.3 µM) 76.6% | viability, T/C (second compound 1 µM, first compound 0.949 µM) 66.5% | viability, T/C (second compound 1 µM, first compound 3 µM) 55.6% | viability, T/C (second compound 3.16 µM, first compound 0.00949 µM) 68.6% | viability, T/C (second compound 3.16 µM, first compound 0.03 µM) 78% | viability, T/C (second compound 3.16 µM, first compound 0.0949 µM) 97.3% | viability, T/C (second compound 3.16 µM, first compound 0.3 µM) 67.8% | viability, T/C (second compound 3.16 µM, first compound 0.949 µM) 70.8% | viability, T/C (second compound 3.16 µM, first compound 3 µM) 47.1% | viability, T/C (second compound 10 µM, first compound 0.00949 µM) 77.3% | viability, T/C (second compound 10 µM, first compound 0.03 µM) 68.2% | viability, T/C (second compound 10 µM, first compound 0.0949 µM) 68.8% | viability, T/C (second compound 10 µM, first compound 0.3 µM) 61.2% | viability, T/C (second compound 10 µM, first compound 0.949 µM) 51.8% | viability, T/C (second compound 10 µM, first compound 3 µM) 10.5%
6.05: pIC50 (second compound 10 µM)
